Measured values taken from patent US7709466B2, “Pyridazinone derivatives, methods for their production and their use as pharmaceuticals” (Sanofi-Aventis Deutschland GmbH, priority 2004, dated 2010).

molecular target: GSK-3β (Homo sapiens, UniProt P49841); assay: GSK-3β activity, AlphaScreen technology, determination of IC50-values; assay type: biochemical; conditions: human recombinant enzyme, primed glycogen synthase substrate peptide, 10 μM ATP, 60 min at room temperature, triplicate; read-out: GSK3β (μmol)
Procedure: Functional Measurements for Determination of IC50-Values
GSK-3βGSK-β activity is measured using human recombinant GSK-β and a primed (pre-phosphorylated) substrate peptide (derived from glycogen synthase and containing the phosphorylation sites 3a, b, and c) on basis of the AlphaScreen technology in 384-well plate format (small volume plate, white, GREINER). In a final volume of 11 μl, 2 μl of compound (1 nM-[…] in kinase buffer, DMSO (dimethylsulfoxide) kept constant at 0.9%), 2 μl of GSK-βsolution (0.18 nM) and 2 μl of biot. phospho-glycogen synthase peptide (34 nM) in kinase buffer (20 mM Hepes, pH 7.4, 10 mM MgCl2, […] (ethylenediaminotetraacetate), 1 mM DTT (dithiotriol), 0.1 mg/ml BSA (bovine serum albumin), 10 μM ATP (adenosinetriphosphate)) are incubated at room temperature for 60 min.

GSK-3β, sequence (P49841 whole entry): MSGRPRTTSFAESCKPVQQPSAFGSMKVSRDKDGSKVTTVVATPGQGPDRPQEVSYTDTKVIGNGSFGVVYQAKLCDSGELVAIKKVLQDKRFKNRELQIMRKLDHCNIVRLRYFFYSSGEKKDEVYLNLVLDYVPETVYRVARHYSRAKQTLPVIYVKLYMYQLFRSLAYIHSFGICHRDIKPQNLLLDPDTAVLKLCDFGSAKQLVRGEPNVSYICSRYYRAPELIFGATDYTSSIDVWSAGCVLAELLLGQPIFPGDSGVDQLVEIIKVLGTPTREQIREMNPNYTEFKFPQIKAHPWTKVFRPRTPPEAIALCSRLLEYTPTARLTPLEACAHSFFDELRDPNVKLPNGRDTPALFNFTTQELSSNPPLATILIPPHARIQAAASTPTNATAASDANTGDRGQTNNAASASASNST

Compound | IC50 [nM]
Cc1cc(-c2cc(-c3cc4ccccc4[nH]3)c(=O)[nH]n2)cc(C)c1O [Example 6, 6-(4-Hydroxy-3,5-dimethyl-phenyl)-4-(1H-indol-2-yl)-2H-pyridazin-3-one] | 590
O=c1[nH]nc(-c2ccncc2)cc1-c1[nH]c2ccccc2c1CN1CCOCC1 [Example 11, 4-(3-Morpholin-4-ylmethyl-1H-indol-2-yl)-6-pyridin-4-yl-2H-pyridazin-3-one] | 102
O=c1[nH]nc(-c2ccncc2)cc1-c1[nH]c2ccccc2c1Cl [Example 26, 4-(3-Chloro-1H-indol-2-yl)-6-pyridin-4-yl-2H-pyridazin-3-one] | 25
O=c1[nH]nc(-c2ccncc2)cc1-c1cc2ccc(CN3CCN(C4CC4)CC3)cc2[nH]1 [Example 65, 4-[6-(4-Cyclopropyl-piperazin-1-ylmethyl)-1H-indol-2-yl]-6-pyridin-4-yl-2H-pyridazin-3-one] | 4
O=C(O)[C@@H]1CCCN1Cc1ccc2cc(-c3cc(-c4ccncc4)n[nH]c3=O)[nH]c2c1 [Example 74, (S)-1-[2-(3-Oxo-6-pyridin-4-yl-2,3-dihydro-pyridazin-4-yl)-1H-indol-6-ylmethyl]-pyrrolidine-2-carboxylic acid] | 10
O=c1[nH]nc(-c2ccncc2)cc1-c1cc2ccc(CNC3CC3)cc2[nH]1 [Example 87, 4-(6-Cyclopropylaminometh-yl-1H-indol-2-yl)-6-pyridin-4-yl-2H-pyridazin-3-one] | 14
CN(Cc1ccc2cc(-c3cc(-c4ccncc4)n[nH]c3=O)[nH]c2c1)C1CCN(C2CC2)CC1 [Example 89, 4-(6-{[(1-Cyclopropyl-piperidin-4-yl)-methyl-amino]-methyl}-1H-indol-2-yl)-6-pyridin-4-yl-2H-pyridazin-3-one] | 12
COc1ccc2[nH]c(-c3cc(-c4ccncc4)n[nH]c3=O)cc2n1 [Example 116, 4-(5-Methoxy-1H-pyrrolo[3,2-b]pyridin-2-yl)-6-pyridin-4-yl-2H-pyridazin-3-one] | 7
O=c1[nH]nc(-c2ccncc2)cc1-c1[nH]c2ccccc2c1C1CC1 [Example 118, 4-(3-Cyclopropyl-1H-indol-2-yl)-6-pyridin-4-yl-2H-pyridazin-3-one] | 11
Cn1cc(-c2cc(-c3cc4ccccc4[nH]3)c(=O)[nH]n2)cn1 [Example 126, 4-(1H-Indol-2-yl)-6-(1-methyl-1H-pyrazol-4-yl)-2H-pyridazin-3-one] | 1500
Cn1cc(-c2c(-c3cc(-c4ccncc4)n[nH]c3=O)[nH]c3ccccc23)cn1 [Example 133, 4-[3-(1-Methyl-1H-pyrazol-4-yl)-1H-indol-2-yl]-6-pyridin-4-yl-2H-pyridazin-3-one] | 7
O=c1[nH]nc(-c2ccn[nH]2)cc1-c1cc2ccccc2[nH]1 [Example 147, 4-(1H-Indol-2-yl)-6-(2H-pyrazol-3-yl)-2H-pyridazin-3-one] | 2000
CN1CCN(Cc2ccc3cc(-c4cc(-c5cccc(O)c5)n[nH]c4=O)[nH]c3c2)CC1 [Example 156, 6-(3-Hydroxy-phenyl)-4-[6-(4-methyl-piperazin-1-ylmethyl)-1H-indol-2-yl]-2H-pyridazin-3-one] | 21
CC(NC1CCN(C2CC2)CC1)c1ccc2cc(-c3cc(-c4ccncc4)n[nH]c3=O)[nH]c2c1 (stereo not shown) [Example 165, 4-{6-[1-(1-Cyclopropyl-piperidin-4-ylamino)-ethyl]-1H-indol-2-yl}-6-pyridin-4-yl-2H-pyridazin-3-one] | 18
Cc1cc(-c2cc(-c3[nH]c4ccccc4c3-c3c[nH]c(=O)[nH]c3=O)c(=O)[nH]n2)cc(C)c1O [Example 176, 5-{2-[6-(4-Hydroxy-3,5-dimethyl-phenyl)-3-oxo-2,3-dihydro-pyridazin-4-yl]-1H-indol-3-yl}-1H-pyrimidine-2,4-dione] | 78
Cc1cc(-c2cc(-c3cc4ncccc4[nH]3)c(=O)[nH]n2)cc(C)c1O [Example 180, 6-(4-Hydroxy-3,5-dimethyl-phenyl)-4-(1H-pyrrolo[3,2-b]pyridin-2-yl)-2H-pyridazin-3-one] | 18
